Source: US6197788A, “(-)-mefloquine to block puringergic receptors and to treat movement or neurodegenerative disorders” (Vernalis Research Limited, priority 1997, dated 2001)
Like-named read-outs stand apart in the source and are kept apart here.

Experiments:
[1] = molecular target: human recombinant (HEK-293) adenosine A2A receptor; conditions: read-out: Ki adenosine A2A, cited from earlier work
[2] = molecular target: human recombinant (HEK-293) adenosine A3 receptor; conditions: read-out: Ki adenosine A3; cited from earlier work
[3] = test system: haloperidol-induced catalepsy; conditions: literature; cited from earlier work
[4] = 150 mg/day slow release oral, after one week; 10080 min; cited from earlier work
Parkinson's disease = conditions: 150 mg/day slow release oral, up to 12 weeks, cited from earlier work
adenosine A1 receptor = conditions: read-out: Ki adenosine A1, cited from earlier work
catalepsy = conditions: cited from earlier work
[5] = test system: mouse striatal and frontal cortex neurochemistry; conditions: for dopamine or 5-HT neurochemistry and transmitter metabolites: (+)- versus (-)-enantiomer
[6] = molecular target: bovine striatal adenosine receptors; test: Displacement of [3H]-NECA (non-selective P1 ligand) binding to striatal membranes
[7] = human, in vivo; cited from earlier work
[8] = test system: haloperidol-induced catalepsy; test: Haloperidol-induced catalepsy in the rat; conditions: 0.1-10 mg/kg p.o. 6 h prior to testing; haloperidol 0.2 mg/kg i.p.
Protocol: Evaluation of Potential Anti-Parkinsonian Activity in vivo Haloperidol-induced Catalepsy in the Rat
This method assessed the ability of an animal to respond to an externally imposed posture after receiving the neuroleptic dopamine D2 antagonist haloperidol.
Haloperidol (0.2 mg/kg) was obtained in injectable form and diluted to a final concentration using physiological saline. 3,7-Dimethyl-1-propargylxanthine(DMPX) (0, 3 mg/kg) was dissolved in saline. All drugs were administered in a volume of 2 ml/kg.
The test procedure was as follows:
Step I The rat was taken out of the home cage and placed on a table.
Step II The front paws of the rat were placed alternately on a 3 cm high wooden block.
Step III The front paws of the rat were placed alternately on a 9 cm high wooden block. […] Thus for any animal the highest score obtainable was 3.5 (cut-off score) reflecting total catalepsy.
Data from the experiment were analysed using Kruskal-Wallis ANOVA followed by Mann-Whitney U test when appropriate, and are expressed as means +/- standard error of the mean *p<0.05 versus vehicle control.

OC[C@H]1O[C@@H](n2cnc3c(NC4CCCCC4)ncnc32)[C@H](O)[C@@H]1O [CHA]
Ki [1]: 510 nM | Ki [2]: 7700 nM

N[C@@H](Cc1ccc(O)c(O)c1)C(=O)O [L-DOPA]
blocking of haloperidol-induced catalepsy [3]: block haloperidol-induced catalepsy

Cn1c(=O)c2[nH]cnc2n(C)c1=O [THEOPHYLLINE, theophylline]
serum theophylline levels [4]: 4.44 mg/L | mean objective disability scores (Parkinson's disease; 15 patients): significant improvements | patients reporting moderate or marked subjective improvement (Parkinson's disease; of 15 patients): 11

CCn1c(=O)c2c(nc(/C=C/c3ccc(OC)c(OC)c3)n2C)n(CC)c1=O [KW-6002]
Ki [1]: 13 nM | Ki (adenosine A1 receptor): 580 nM

CCCn1c(=O)c2c(nc(/C=C/c3ccc(OC)c(OC)c3)n2C)n(CCC)c1=O [KF17837, (E)-8-(3,4-dimethoxystyryl)-1,3-dipropyl-7-methylxanthine]
Ki ([1]; comparative literature data): 8 nM | anticataleptic effects of a subthreshold dose of L-DOPA plus benserazide (catalepsy; combination): potentiated | catalepsy induced by haloperidol and reserpine (catalepsy; in vivo): reduced | cataleptic responses induced by intracerebroventricular CGS 21680 (catalepsy; oral administration): significantly ameliorated | Ki (adenosine A1 receptor; comparative literature data): 390 nM

O[C@@H](c1cc(C(F)(F)F)nc2c(C(F)(F)F)cccc12)[C@H]1CCCCN1 [(-) enantiomer, (-)-(11S,2'R)-α-2-piperidinyl-2,8-bis(trifluoromethyl)-4-quinolinemethanol]
frontal cortex acetylcholine ([5]; 100 mg/kg p.o., 24 h): unaffected | striatal acetylcholine content, (-)- versus (+)-enantiomer ([5]; 100 mg/kg p.o., 24 h): significantly higher | striatal acetylcholine content, post-hoc Duncan's test between enantiomers ([5]; 100 mg/kg p.o., 24 h): between the (+)-enantiomer and the (-)-enantiomer (p<0.01) | striatal acetylcholine content, post-hoc Duncan's test versus vehicle ([5]; 100 mg/kg p.o., 24 h): significant difference between vehicle and the (-)-enantiomer (p<0.05) | dopamine or 5-HT neurochemistry and transmitter metabolites ([5]; 100 mg/kg p.o., 24 h): No significant difference | acetylcholine release in striatum (suggested by FIG. 6) ([5]; inferred from tissue acetylcholine content): inhibits acetylcholine release in striatum | Ki [6]: 83 nM | half life [7]: 14.4 days | blocking of haloperidol-induced catalepsy [8]: capable of blocking haloperidol-induced catalepsy

O[C@H](c1cc(C(F)(F)F)nc2c(C(F)(F)F)cccc12)[C@@H]1CCCCN1 [(+) enantiomer, (+)-(11R,2'S)-α-2-piperidinyl-2,8-bis(trifluoromethyl)-4-quinolinemethanol]
frontal cortex acetylcholine ([5]; 100 mg/kg p.o., 24 h): unaffected | dopamine or 5-HT neurochemistry and transmitter metabolites ([5]; 100 mg/kg p.o., 24 h): No significant difference | Ki [6]: 38000 nM

CNC(=O)[C@H]1O[C@@H](n2cnc3c(N)ncnc32)[C@H](O)[C@@H]1O [MECA, 5'-N-methylcarboxamidoadenosine]
Ki [6]: 58 nM
